Experimental data taken from paper PMC10781691, “Vertical pathway inhibition of receptor tyrosine kinases and BAD with synergistic efficacy in triple negative breast cancer” (NPJ Precision Oncology, 2024).
Like-named read-outs stand apart in the source and are kept apart here.

Legend:
[1] = tested on: 4T1-luciferase homografts; test: Orthotopic syngeneic homograft, combination study; assay type: in vivo; details: BALB/c mice, day 16; NCK 20 mg/kg, OSI 50 mg/kg, CRI 50 mg/kg
Procedure: In vivo bioluminescent imaging was performed to determine the incidence and metastatic burden of luciferase-labeled 4T1 cells. Mice were injected i.p. with 10 mg/ml of D-luciferin (Gold Biotechnology, MO, USA) and imaged using a PerkinElmer IVIS Spectrum system. PDX were generated as previously described by transplanting fresh fragments orthotopically into 8-week-old female nonobese diabetic (NOD)/severe combined immunodeficient (SCID) mice (Beijing Vital River Laboratory Animal Technology Co., Beijing, China) (P1, passage 1)[40]. The P1 xenografts were then fragmented, digested into single-cell suspension and implanted into mammary fat pad (100 μL PBS containing growth factor reduced 50% Matrigel) of NOD/SCID mice. Once orthotopic xenografts reached an approximate size of 100 mm^3, the mice were randomly divided into three groups (n = 8) for single drug studies and six groups (n = 6) for combination studies and Kaplan-Meier (KM) analyses. […] Animal body weight and xenograft size were measured daily using an electronic balance and a digital caliper, respectively. Xenograft volume (mm^3) was calculated by using the formula: 0.52 × length × [width]^2. Complete response (CR) was achieved if the average xenograft volume for the treatment group was unable to be determined for two or more consecutive measurements. Partial response (PR) was achieved if the average xenograft volume reduced to <50 mm^3 for two or more consecutive measurements. After 3-week drug treatment, all mice were sacrificed by CO2 inhalation. Tumor and vital organs were weighed and isolated for further analysis. IHC analysis of xenograft histology sections and quantitative polymerase chain reaction (qPCR) were performed as previously described. […]
model was measured every day and calculated by using the formula: 0.52 × length × [width]2.
The animal weight of each treatment group is indicated. […]
treatment group after sacrifice on the 15th day of treatment. (C) Bioluminescence of homografts from mice orthotopically implanted with 4T1-luciferase cells. (D) Resected homografts from each treatment group.
(F) Histological analyses and IRS scoring of pBAD at Ser99, BAD, MKI67, and TUNEL staining in homografts. Scale bar, 20 µm. […]
kidney weights (%, organ body index) and colon length of BALB/c mice administrated with […]
represent means ± SD ( n=6).*P < 0.05, **P < 0.01, and ***P < 0.001.

[2] = tested on: MAPK and PI3K/AKT pathways; test: Western blot of PI3K/AKT and MAPK pathway proteins; assay type: cell-based, human
Procedure: Next, western blot analyses were performed to determine potential alteration in expression or activity of the target proteins along the MAPK and PI3K/AKT pathways. […] . […] CI analysis method.

MDA-MB-231 cells [3] = tested on: MDA-MB-231 cells
MDA-MB-231 cells [4] = test: Foci formation (crystal violet); details: MDA-MB-231, 5 μM each
BT549 cells = test: Foci formation (crystal violet); details: BT549, 5 μM each
MDA-MB-231 xenografts = test: Orthotopic xenograft, combination study; assay type: in vivo, BALB/c-nude mice; details: for cells of human origin in lung sections (IHC staining of human HPRT): MDA-MB-231-engrafted mice; for % Regression: Complete Response (100%) / % Regression: Partial Response (>50%) / % Regression: Disease Progression: MDA-MB-231 xenograft; for % Regression: Disease Progression: day 21 (xenograft volume >100 mm^3); for lung metastasis incidence (mice with detectable lung hHPRT mRNA, qPCR): n = 6, vehicle 3 out of 6
Procedure: In vivo bioluminescent imaging was performed to determine the incidence and metastatic burden of luciferase-labeled 4T1 cells. Mice were injected i.p. with 10 mg/ml of D-luciferin (Gold Biotechnology, MO, USA) and imaged using a PerkinElmer IVIS Spectrum system. PDX were generated as previously described by transplanting fresh fragments orthotopically into 8-week-old female nonobese diabetic (NOD)/severe combined immunodeficient (SCID) mice (Beijing Vital River Laboratory Animal Technology Co., Beijing, China) (P1, passage 1)[40]. The P1 xenografts were then fragmented, digested into single-cell suspension and implanted into mammary fat pad (100 μL PBS containing growth factor reduced 50% Matrigel) of NOD/SCID mice. Once orthotopic xenografts reached an approximate size of 100 mm^3, the mice were randomly divided into three groups (n = 8) for single drug studies and six groups (n = 6) for combination studies and Kaplan-Meier (KM) analyses. […] Animal body weight and xenograft size were measured daily using an electronic balance and a digital caliper, respectively. Xenograft volume (mm^3) was calculated by using the formula: 0.52 × length × [width]^2. Complete response (CR) was achieved if the average xenograft volume for the treatment group was unable to be determined for two or more consecutive measurements. Partial response (PR) was achieved if the average xenograft volume reduced to <50 mm^3 for two or more consecutive measurements. After 3-week drug treatment, all mice were sacrificed by CO2 inhalation. Tumor and vital organs were weighed and isolated for further analysis. IHC analysis of xenograft histology sections and quantitative polymerase chain reaction (qPCR) were performed as previously described.
Data represent means ± SD. *P < 0.05, **P < 0.01, and ***P < 0.001.
Data represent means ± SD (n=6). *P < 0.05, **P
< 0.01, and ***P < 0.001.
Abbreviations: ALT/GOT, alanine
aminotransferase/ glutamic oxaloacetic transaminase; AST/GPT, aspartate aminotransferase/
glutamic pyruvic transaminase; CREA, creatinine; UREA, urea; and ALB, albumin. Data
represent means ± SD. *P < 0.05, **P < 0.01, and ***P < 0.001.

[5] = Balb/c-nude mice, day 22, NCK 20 mg/kg, OSI 50 mg/kg, CRI 50 mg/kg
[6] = day 21, NCK 20 mg/kg q.d., OSI-930 20 mg/kg q.d., Crizotinib 50 mg/kg b.i.w.
[7] = serum, NCK 20 mg/kg, OSI 50 mg/kg, CRI 50 mg/kg

Oc1ccccc1C(c1cccnc1)N1CCN(c2cccc(Cl)c2Cl)CC1 (stereo not shown) [NCK, 2-((4-(2,3-dichlorophenyl)piperazin-1-yl)(pyridin-3-yl)methyl) phenol]
Colon Length [1]: 9.02±1.54 cm | Relative Heart Weight [1]: 0.61±0.11% | Relative Kidney Weight [1]: 1.40±0.16% | Relative Liver Weight [1]: 4.98±0.21% | Relative Lung Weight [1]: 0.87±0.11% | Relative Spleen Weight [1]: 2.24±0.40% | phosphorylated and total proteins of MAPK and PI3K/AKT pathways ([2]; BT549, 1 μM): did not affect | phosphorylated and total proteins of MAPK and PI3K/AKT pathways ([2]; MDA-MB-231, 1 μM): did not affect | Relative Heart Weight (MDA-MB-231 cells [3]; [5]): 0.66±0.08% | Relative Kidney Weight (MDA-MB-231 cells [3]; [5]): 1.72±0.18% | Relative Liver Weight (MDA-MB-231 cells [3]; [5]): 6.57±0.93% | Relative Lung Weight (MDA-MB-231 cells [3]; [5]): 0.82±0.05% | Relative Spleen Weight (MDA-MB-231 cells [3]; [5]): 0.75±0.13% | micro-metastatic nodules in lung (H&E) vs vehicle (MDA-MB-231 cells [3]; MDA-MB-231 metastasis model): significantly reduced lung colonization | Relative Lung Weight (MDA-MB-231 cells [3]; MDA-MB-231 metastasis model, vehicle 0.19 ± 0.02 g): 0.17 ± 0.01 g | 2D foci formation (MDA-MB-231 cells [4]): significantly attenuated the capacity for foci formation | 2D foci formation (BT549 cells): significantly attenuated the capacity for foci formation | Relative Heart Weight (MDA-MB-231 xenografts; [5]): 0.74±0.16% | Relative Kidney Weight (MDA-MB-231 xenografts; [5]): 1.60±0.14% | Relative Lung Weight (MDA-MB-231 xenografts; [5]): 2.39±0.57% | Relative Spleen Weight (MDA-MB-231 xenografts; [5]): 0.77±0.14% | cells of human origin in lung sections (IHC staining of human HPRT) (MDA-MB-231 xenografts): not in the lung sections | % Regression: Complete Response (100%) (MDA-MB-231 xenografts; day 21): 33% | % Regression: Partial Response (>50%) (MDA-MB-231 xenografts; day 21): 17% | % Regression: Disease Progression (MDA-MB-231 xenografts): 50% | MKI67 positivity in xenograft vs vehicle (MDA-MB-231 xenografts; NCK 20 mg/kg q.d.): significantly reduced MKI67 positivity | TUNEL scores in xenograft vs vehicle (MDA-MB-231 xenografts; NCK 20 mg/kg q.d.): increased TUNEL scores | level of pBADSer99 in resected xenograft vs vehicle (MDA-MB-231 xenografts; NCK 20 mg/kg q.d.): reduced the level of pBADSer99 | complete regression of xenografts (MDA-MB-231 xenografts; [6]): 33.33% | complete regression of xenografts (number of xenografts) (MDA-MB-231 xenografts; [6]): 2/6 | lung metastasis incidence (mice with detectable lung hHPRT mRNA, qPCR) (MDA-MB-231 xenografts): 1/6 | ALB (MDA-MB-231 xenografts; [7]): 28.48 ± 3.45 g/L | ALT/GOT (MDA-MB-231 xenografts; [7]): 75.66±23.55 U/L | AST/GPT (MDA-MB-231 xenografts; [7]): 296.04±102.48 U/L | CREA (MDA-MB-231 xenografts; [7]): 23.49 ± 3.02 µmol/L | UREA (MDA-MB-231 xenografts; [7]): 14.01 ± 3.33 mmol/L

O=C(Nc1ccc(OC(F)(F)F)cc1)c1sccc1NCc1ccnc2ccccc12 [OSI-930]
Colon Length [1]: 9.33±1.26 cm | Relative Kidney Weight [1]: 1.34±0.02% | phosphorylated and total proteins of MAPK and PI3K/AKT pathways ([2]; BT549, 1 μM): significantly reduced the level of p-AKT (Ser473)/AKT | phosphorylated and total proteins of MAPK and PI3K/AKT pathways ([2]; MDA-MB-231, 1 μM): significantly inhibited the PI3K/AKT pathway | micro-metastatic nodules in lung (H&E) vs vehicle (MDA-MB-231 cells [3]; MDA-MB-231 metastasis model): significantly reduced lung colonization | 2D foci formation (MDA-MB-231 cells [4]): significantly attenuated the capacity for foci formation | 2D foci formation (BT549 cells): significantly attenuated the capacity for foci formation | cells of human origin in lung sections (IHC staining of human HPRT) (MDA-MB-231 xenografts): not in the lung sections | % Regression: Complete Response (100%) (MDA-MB-231 xenografts; day 21): 0% | % Regression: Partial Response (>50%) (MDA-MB-231 xenografts; day 21): 33% | % Regression: Disease Progression (MDA-MB-231 xenografts): 67% | lung metastasis incidence (mice with detectable lung hHPRT mRNA, qPCR) (MDA-MB-231 xenografts): none of the mice had lung metastasis | ALB (MDA-MB-231 xenografts; [7]): 30.61 ± 0.84 g/L | ALT/GOT (MDA-MB-231 xenografts; [7]): 81.99±27.99 U/L | AST/GPT (MDA-MB-231 xenografts; [7]): 298.22±75.62 U/L | UREA (MDA-MB-231 xenografts; [7]): 12.36 ± 6.01 mmol/L
